Measured values: PMC4028696, “Development of a screen to identify selective small molecules active against patient-derived metastatic and chemoresistant breast cancer cells” (Breast Cancer Research : BCR, 2013)
Counter-ions that a name gives are not always drawn. Peptide text beside a SMILES is read from it. * marks the point of attachment. Cbz = O=C(OCc1ccccc1)*; CH2F = FC*

Key:
Type in all cases: cell-based, human
MCF-7 cells [1] = assay: Dose response assay, ATPlite viability, four days; conditions: MCF-7, four days of treatment, ATP viability
Method: (§1) Cells were seeded in white 96-well plates (Costar, Tewksbury, MA, USA) in 100 μL of their respective media at varying densities to achieve 80% to 90% confluency after five days in culture. The compounds dissolved in DMSO were diluted in their corresponding media containing 2% FBS and an EP Motion 5075 (Eppendorf North America, Hauppauge, NY, USA) liquid handler was utilized to perform a serial dilution. […] After the cells were cultured for 24 hours, the media were aspirated and the cells were treated with the compounds and vehicle controls in triplicate. After four days of treatment, viability was determined utilizing the ATPlite 1step assay system (Perkin Elmer, Waltham, MA, USA) according to the manufacturer's instructions. Luminescence measurements were acquired utilizing a Perkin Elmer 2104 EnVision plate reader. Raw luminescence values were normalized to the DMSO vehicle control wells.

MDA-MB-231 cells = assay: Dose response assay, ATPlite viability, four days; conditions: MDA-MB-231, four days of treatment, ATP viability
Method: as §1

PE1007070 cells = assay: Dose response assay, ATPlite viability, four days; conditions: PE1007070, four days of treatment, ATP viability
Method: as §1

PE1008032 cells = assay: Dose response assay, ATPlite viability, four days; conditions: PE1008032, four days of treatment, ATP viability
Method: as §1

PE904557a cells = assay: Dose response assay, ATPlite viability, four days; conditions: four days of treatment, ATP viability, N/A = data could not be fitted
Method: as §1

T47D cells = assay: Dose response assay, ATPlite viability, four days; conditions: four days of treatment, ATP viability
Method: as §1

LC3A/B-II = assay: Western blot for LC3A/B-II (autophagy); conditions: most cells, 50 μM, 24 hours
Method: Cells were lysed in cold radioimmunoprecipitation assay buffer (50 mM Tris HCl, 150 mM NaCl, 0.1% sodium dodecyl sulfate (SDS), 0.5% sodium deoxycholate, 1% Triton X-100, pH = 8.0) supplemented with protease inhibitor cocktail (Sigma), phosphatase inhibitor cocktail 2 (Sigma) and 1 mM dithiothreitol (DTT) (Sigma). The lysate was sonicated for 30 seconds using a 450 Sonifier (Branson Ultrasonics, Danbury, CT, USA) and was centrifuged at 14,000 RPM for five minutes at 4°C. The protein concentration was determined using the BCA protein assay kit (Peirce, Rockford, IL, USA) and the samples were boiled for five minutes with 4× SDS Laemmli buffer. Equal amounts of protein were resolved on SDS polyacrylamide gels and transferred to an Immobilon-FL PVDF membrane (EMD Millipore). Blots were blocked in Odyssey Blocking Buffer (LI-COR, Lincoln, NE, USA) for one hour at room temperature, stained with primary antibodies overnight at 4°C, washed, and stained with IR800CW or IR680 anti-mouse or rabbit secondary antibodies (LI-COR) for one hour at room temperature. Blots were imaged with the Odyssey Infrared Imaging System (LI-COR).

MCF-7 cells [2] = assay: Pan-caspase inhibitor effect on C-6 induced cell death; conditions: data not shown
[3] = Homo sapiens, 96 h, N/A = data could not be fitted

Row | Structure (SMILES) | EC50 (MCF-7 cells [1]; Homo sapiens, MCF7, 96 h) | EC50 (MDA-MB-231 cells; Homo sapiens, 96 h) | EC50 (T47D cells; Homo sapiens, 96 h) | EC50 (PE1007070 cells; [3]) | EC50 (PE1008032 cells; [3]) | EC50 (PE904557a cells; Homo sapiens, 96 h) | also measured
1 | COc1cccc2c1C(=O)c1c(O)c3c(c(O)c1C2=O)C[C@@](O)(C(=O)CO)C[C@@H]3O[C@H]1C[C@H](N)[C@H](O)[C@H](C)O1 [Doxorubicin, doxorubicin hydrochloride] | 261 nM | 110 nM | 192 nM | 677 nM | 346 nM | 736 nM | 
2 | CCN(CC)CCCC(C)Nc1ccnc2cc(Cl)ccc12 (stereo not shown) [chloroquine, Chloroquine] |  |  |  |  |  |  | LC3A/B-II levels (LC3A/B-II): significant increase
3 | N.N.[Cl][Pt][Cl] [Cisplatin, cis-diammineplatinum (II) dichloride] |  |  |  |  |  |  | EC50 (MCF-7 cells [1]): 8670 nM; EC50 (MDA-MB-231 cells): 6880 nM; EC50 (PE1007070 cells): 10100 nM; EC50 (PE1008032 cells): 19400 nM; EC50 (T47D cells): 50200 nM
4 | CC(C)C[C@H](NC(=O)[C@H](Cc1ccccc1)NC(=O)c1cnccn1)B(O)O [Bortezomib, bortezomib] | 5.71 nM | 35 nM | 33 nM | 14.6 nM | 3.33 nM | 32 nM | 
5 | C=CCNC1=C2C[C@@H](C)C[C@H](OC)[C@H](O)[C@@H](C)/C=C(\C)[C@H](OC(N)=O)[C@@H](OC)/C=C\C=C(/C)C(=O)NC(=CC1=O)C2=O [17-AAG, 17-(allylamino)-17-demethoxygeldanamycin] |  |  |  |  |  |  | EC50 (MCF-7 cells [1]): 867 nM; EC50 (MDA-MB-231 cells): 1500 nM; EC50 (PE1007070 cells): 1150 nM; EC50 (PE1008032 cells): 1660 nM; EC50 (PE904557a cells): 36.8 nM; EC50 (T47D cells): 1410 nM
6 | COC(=O)C[C@H](NC(=O)[C@H](C)NC(=O)[C@@H](NC(=O)OCc1ccccc1)C(C)C)C(=O)CF [Z-VAD-FMK] (Cbz-Val-Ala-Asp(OMe)-CH2F) |  |  |  |  |  |  | effect on C-6 induced cell death (MCF-7 cells [2]): did not affect

The next lines start with results.

Row | EC50 (MCF-7 cells [1]; Homo sapiens, MCF7, 96 h) | EC50 (MDA-MB-231 cells; Homo sapiens, 96 h) | EC50 (T47D cells; Homo sapiens, 96 h) | Structure (SMILES) | EC50 (PE1007070 cells; [3]) | EC50 (PE1008032 cells; [3]) | EC50 (PE904557a cells; Homo sapiens, 96 h) | also measured
7 | 21.6 nM | 23.1 nM | 31 nM | Cc1[nH]c2ccccc2c1CCNCc1ccc(/C=C/C(=O)NO)cc1 [LBH589, panobinostat] | 185 nM | 13.7 nM | 90.5 nM | 
8 | 2.73 nM | 9.63 nM | 6.29 nM | Nc1ccn([C@@H]2O[C@H](CO)[C@@H](O)C2(F)F)c(=O)n1 [Gemcitabine, gemcitabine hydrochloride] |  |  |  | 
9 | 0.299 nM | 2.52 nM | 13.7 nM | CC(=O)O[C@H]1C(=O)[C@@]2(C)[C@H]([C@H](OC(=O)c3ccccc3)[C@]3(O)C[C@H](OC(=O)[C@H](O)[C@@H](NC(=O)c4ccccc4)c4ccccc4)C(C)=C1C3(C)C)[C@]1(OC(C)=O)CO[C@@H]1C[C@@H]2O [Taxol, paclitaxel] |  |  |  | 
